Assay results from patent US9707267B2, “Beta-turn peptidomimetic cyclic compounds for treating dry eye” (Mimetogen Pharmaceuticals, Inc., priority 2008, dated 2017).

Assays:
[1] = tested on: rat conjunctival goblet cells; assay: Glycoconjugate secretion from rat conjunctival goblet cells, ELLA (Example 1); type: cell-based; conditions: 2 hours, mean±sem
Procedure: Cells derived from the explants were grown in RPMI 1640 supplemented with 10% fetal bovine serum (FBS) and penicillin (100 U/mL)/streptomycin (100 μg/mL) at 37° C. in a humidified 5% CO2-atmosphere for seventy-two hours. Contaminating nongoblet cells were removed by scraping them from the plate. During this time, goblet cells migrated from the pieces and began to proliferate. After one week, the goblet cells were trypsinized and plated in twenty-four well culture plates with RPMI-1640 media supplemented with 10% FBS.
To measure glycoconjugate secretion, the conjunctival goblet cells were grown to confluence and were serum deprived for two hours before addition of nerve growth factor (NGF), carbachol (Cch), compound D3, compound 3Aa and compound 3Ak for two hours. Compounds D3, 3Aa and 3Ak were administered at concentrations of 30 μm (micromolar), 10 μM, 1 μM and 0.3 μM. The vehicle used to dissolve the compounds, dimethyl sulfoxide (DMSO) was also included. DMSO was used as the basal control for the 30 μM concentration of compound, which was at 0.1% (v/v). The cholinergic agonist carbachol (Cch), added at 100 μM (micromolar), was a positive control for glycoconjugate secretion. The amount of glycoconjugate secreted into the media was measured by enzyme-linked lectin assay (ELLA). The media were collected and analyzed for amount of the lectin-detectable glycoconjugates, including mucins. The amount of secretion was measured by using the lectin UEA-I which is specific for rat conjunctival goblet cell mucins. Biotinylated UEA-I lectin and alkaline phosphatase-labeled streptavidin were used as described in Rios, J. D., et al., “Role of Neurotrophins and Neurotrophin Receptors in Rat Conjunctival Goblet Cell Secretion and Proliferation, Ophthalmology & Visual Science, 48: 1543-1551 (2007), the entire content of which is incorporated herein by reference. The cells were removed and sonicated, and the cell homogenate was analyzed for the total amount of protein by using the Bradford protein assay. […] Glycoconjugate secretion was expressed as the increase (x-fold) over basal.
Data for CGC glycoconjugate secretion and proliferation were expressed as the increase (x-fold) above basal value, which was standardized to 1.0. For example, for the 0.3 μM (micromolar), 1 μM and 10 μM doses, the CGC glycoconjugate secretion and proliferation were expressed as test compound over untreated cells. For the 30 μM dose, the CGC glycoconjugate secretion and proliferation were expressed as test compound over DMSO untreated cells. Results are expressed as the mean±sem.

p42/44 MAPK = assay: Activation of p42/44 MAPK in goblet cells, Western blot (Example 2); type: cell-based, rat; conditions: 5 minutes, phospho-MAPK relative to actin
Procedure: The activation of p42/44 MAPK was examined using Western blot techniques. Goblet cells were serum starved in serum-free RPMI for 4-6 hrs prior to the addition of PMA (100 nM), NGF (1 or 10 nM), or MIM-D3 (10 or 50 μM) for 5 minutes at 37° C. After, cells were rinsed once in cold PBS, scraped in 100 μL of 1×SDS-PAGE sample buffer [62.5 mM Tris-HCl pH 6.8, 10% glycerol, 2% SDS, 5% β-mercaptoethanol, 0.02 mg/mL bromophenol blue] and sonicated for 20 minutes. The homogenates were centrifuged at 14,900 g for 15 min at 4° C. Proteins in a […] of the supernatant were separated by SDS-PAGE (8% acrylamide gels) and transferred to nitrocellulose membranes. The membranes were blocked for 2 hours in 5% non-fat dried milk in buffer containing 20 mM Tris-HCl, pH 8.0, 150 mM NaCl, and 0.01% Tween-20 (TBST). The blots were then probed with an antibody directed against the phosphorylated form of MAPK1/2 (Calbiochem, San Diego, Calif.) at 0.1 μg/mL in TBST containing 5% BSA overnight at 4° C., followed by a 1 hour incubation in HRP-conjugated secondary anti-mouse antibody (Sigma, St. Louis, Mo.) at room temperature in TBST containing 5% non-fat dried milk. Immunoreactive bands were visualized using the enhanced chemiluminescence method (Perkin Elmer, Waltham, Mass.). The blots were stripped at 55° C. for 30 minutes in stripping buffer [62.5 mM Tris-HCl pH 6.8, 2% SDS, 0.1M β-mercaptoethanol] followed by re-probing with an antibody directed against actin (1:5000 dilution, Sigma, St. Louis, Mo.) in TBST containing 5% non-fat dried milk and incubation in HRP-conjugated secondary anti-rabbit antibody. The immunoreactive bands were digitally scanned on an EPSON scanner and analyzed using NIH ImageJ v1.38x. The amount of phosphorylated MAPK in each sample was standardized to the amount of total actin protein in the sample.
To determine if compound D3 and NGF induced glycoconjugates secretion via activation of the MAPK pathway, cultured goblet cells from 3 independent rats were stimulated by 10 and 50 μM compound D3, 1 and 10 nM NGF or PMA (100 nM, the positive control) for 5 minutes and MAPK activity was measured by western blot analysis. A representative western blot from 3 independent rat goblet cell cultures is shown in FIG. 9, and the quantification is shown in FIG. 10. There was a statistically significant effect of treatment on MAPK activation (P<0.0001). Compound D3 increased MAPK activity above basal by 2.5±0.3 fold at 10 μM and 2.2±0.5 fold at 50 μM and NGF increased MAPK activity by 2.8±0.5 at 1 nM (P<0.05) and 1.7±0.2 at 10 nM.

Compound | CGC glycoconjugate secretion ([1]; 0.3 μM) | CGC glycoconjugate secretion ([1]; 1 μM) | CGC glycoconjugate secretion ([1]; 10 μM) | CGC glycoconjugate secretion ([1]; 30 μM, over DMSO basal) | MAPK activity above basal (p42/44 MAPK; 10 μM) | MAPK activity above basal (p42/44 MAPK; 50 μM) | CGC glycoconjugate secretion ([1]; NGF, concentration not given) | MAPK activity above basal (p42/44 MAPK; 1 nM) | MAPK activity above basal (p42/44 MAPK; 10 nM)
NCCCC[C@@H]1NC(=O)[C@H](CCC(=O)O)NC(=O)c2cc([N+](=O)[O-])ccc2OCCC(C(=O)NCC(=O)O)NC1=O (stereo partly drawn) [Compound D3] | 1.3±0.2 fold above basal | 1.6±0.2 fold above basal | 1.6±0.3 fold above basal | 1.7±0.7 fold above basal | 2.5±0.3 fold | 2.2±0.5 fold | – | – | –
NGF: nerve growth factor (recombinant human), positive control | – | – | – | – | – | – | 1.3±0.1 fold above basal | 2.8±0.5 fold | 1.7±0.2 fold
